Measurements from patent US6914045B2, “Glycopeptide antibiotics” (Wyeth Holdings Corporation, priority 2001, dated 2005).
In brackets after ≈: the same amount, converted by molar mass.

Tests used:
Assay in all cases: in vitro antibacterial evaluation, MIC by broth dilution
Type in all cases: cell-based
Enterococcus sp. = conditions: broth dilution, 18 hours at 35° C.
Outline: (§1)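 MIC = lowest antibiotic concentration preventing visible growth; inoculum 5×10^5 CFU/mL; drug range 64-0.06 μg/mL; Muller-Hinton II […]; NCCLS M7-A2 guidance.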

Staphylococcus sp. = conditions: broth dilution, 18 hours at 35° C.
Outline: as §1

Streptococcus sp. = conditions: broth dilution, 18 hours at 35° C.
Outline: as §1

Escherichia coli = conditions: 18 hours at 35° C.
Outline: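 Broth dilution MIC per NCCLS M7-A2 in Mueller-Hinton II medium, inoculum 5×10^5 CFU/mL, antibiotic range 64-0.06 μg/mL. MIC taken as lowest concentration inhibiting growth.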

CC(c1ccccc1)C1NC(=O)CNC(=O)C(CO)NC(=O)C(C(O)C2CN(Cc3ccccc3)C(=NCc3ccccc3)N2C2OC(CO)C(O)C(O)C2O)NC(=O)C(C(O)C2CN(Cc3ccccc3)C(=NCc3ccccc3)N2Cc2ccccc2)NC(=O)C(Cc2ccc(OC3OC(CO)C(OC4OC5COC6(OC5C(O)C4O)C4CC5CC(C4)CC6C5)C(O)C3O)cc2)NC1=O (stereo not drawn) [Example 79, Cyclo[glycyl-β-methylphenylalanyl-O-[4-O-[4,6-O-(2-adamantylidene)hexotpyranosyl]hexopyranosyl]tyrosyl-3-[1,3-dibenzyl-2-(benzylimino)imidazolidin-4-yl]seryl-3-[1-benzyl-2-(benzylimino)-3-hexopyranosylimidazolidin-4-yl]serylseryl]]
MIC Enterococcus avium (GC 4558) (Enterococcus sp.; Enterococcus avium (GC 4558)): 2 µg/mL (≈ 1.06 µM) | MIC Enterococcus faecalis (ATCC 29212) (Enterococcus sp.; Enterococcus faecalis (ATCC 29212)): 8 µg/mL (≈ 4.26 µM) | MIC Enterococcus faecalis (GC 4552) (Enterococcus sp.; Enterococcus faecalis (GC 4552)): 32 µg/mL (≈ 17 µM) | MIC Enterococcus faecalis (GC 4553) (Enterococcus sp.; Enterococcus faecalis (GC 4553)): 4 µg/mL (≈ 2.13 µM) | MIC Enterococcus faecalis (GC 4554) (Enterococcus sp.; Enterococcus faecalis (GC 4554)): 16 µg/mL (≈ 8.52 µM) | MIC Enterococcus faecalis (GC 6189) (Enterococcus sp.; Enterococcus faecalis (GC 6189)): 8 µg/mL (≈ 4.26 µM) | MIC Enterococcus faecium (GC 2243) (Enterococcus sp.; Enterococcus faecium (GC 2243)): 8 µg/mL (≈ 4.26 µM) | MIC Enterococcus faecium (GC 4556) (Enterococcus sp.; Enterococcus faecium (GC 4556)): 32 µg/mL (≈ 17 µM) | MIC Enterococcus faecium (GC 4557) (Enterococcus sp.; Enterococcus faecium (GC 4557)): 4 µg/mL (≈ 2.13 µM) | MIC Enterococcus avium (GC 4558) (Enterococcus sp.): 2 µg/mL (≈ 1.06 µM) | MIC Enterococcus faecalis (ATCC 29212) (Enterococcus sp.): 8 µg/mL (≈ 4.26 µM) | MIC Enterococcus faecalis (GC 2242) (Enterococcus sp.): 16 µg/mL (≈ 8.52 µM) | MIC Enterococcus faecalis (GC 2691) (Enterococcus sp.): 8 µg/mL (≈ 4.26 µM) | MIC Enterococcus faecalis (GC 3059) (Enterococcus sp.): 32 µg/mL (≈ 17 µM) | MIC Enterococcus faecalis (GC 4552) (Enterococcus sp.): 32 µg/mL (≈ 17 µM) | MIC Enterococcus faecalis (GC 4553) (Enterococcus sp.): 4 µg/mL (≈ 2.13 µM) | MIC Enterococcus faecalis (GC 4554) (Enterococcus sp.): 16 µg/mL (≈ 8.52 µM) | MIC Enterococcus faecalis (GC 6189) (Enterococcus sp.): 8 µg/mL (≈ 4.26 µM) | MIC Enterococcus faecium (GC 2243) (Enterococcus sp.): 8 µg/mL (≈ 4.26 µM) | MIC Enterococcus faecium (GC 4556) (Enterococcus sp.): 32 µg/mL (≈ 17 µM) | MIC Enterococcus faecium (GC 4557) (Enterococcus sp.): 4 µg/mL (≈ 2.13 µM) | MIC Enterococcus faecalis (GC 2242) (Enterococcus sp.; strain GC 2242): 16 µg/mL (≈ 8.52 µM) | MIC Enterococcus faecalis (GC 2691) (Enterococcus sp.; strain GC 2691): 8 µg/mL (≈ 4.26 µM) | MIC Enterococcus faecalis (GC 3059) (Enterococcus sp.; strain GC 3059): 32 µg/mL (≈ 17 µM) | MIC Staphylococcus aureus (ATCC 29213) (Staphylococcus sp.; strain ATCC 29213): 4 µg/mL (≈ 2.13 µM) | MIC Staphylococcus aureus (GC 1131) (Staphylococcus sp.; strain GC 1131): 8 µg/mL (≈ 4.26 µM) | MIC Staphylococcus aureus (GC 3051) (Staphylococcus sp.; strain GC 3051): 4 µg/mL (≈ 2.13 µM) | MIC Staphylococcus aureus (GC 3053) (Staphylococcus sp.; strain GC 3053): 4 µg/mL (≈ 2.13 µM) | MIC Staphylococcus aureus (GC 4541) (Staphylococcus sp.; strain GC 4541): 4 µg/mL (≈ 2.13 µM) | MIC Staphylococcus aureus (GC 4542) (Staphylococcus sp.; strain GC 4542): 4 µg/mL (≈ 2.13 µM) | MIC Staphylococcus aureus-SMITH (GC 4543) (Staphylococcus sp.; strain GC 4543): 4 µg/mL (≈ 2.13 µM) | MIC Staphylococcus aureus (GC 4544) (Staphylococcus sp.; strain GC 4544): 8 µg/mL (≈ 4.26 µM) | MIC Staphylococcus aureus (GC 4545) (Staphylococcus sp.; strain GC 4545): 4 µg/mL (≈ 2.13 µM) | MIC Staphylococcus haemolyticus (GC 4546) (Staphylococcus sp.; strain GC 4546): 4 µg/mL (≈ 2.13 µM) | MIC Coagulase Negative Staphylococcus (GC 4547) (Staphylococcus sp.; strain GC 4547): 4 µg/mL (≈ 2.13 µM) | MIC Coagulase Negative Staphylococcus (GC 4548) (Staphylococcus sp.; strain GC 4548): 4 µg/mL (≈ 2.13 µM) | MIC Coagulase Negative Staphylococcus (GC 4549) (Staphylococcus sp.; strain GC 4549): 2 µg/mL (≈ 1.06 µM) | MIC Coagulase Negative Staphylococcus (GC 4551) (Staphylococcus sp.; strain GC 4551): 4 µg/mL (≈ 2.13 µM) | MIC Coagulase Negative Staphylococcus (GC 6257) (Staphylococcus sp.; strain GC 6257): 4 µg/mL (≈ 2.13 µM) | MIC Streptococcus agalactiae (GC 4564) (Streptococcus sp.): 4 µg/mL (≈ 2.13 µM) | MIC Streptococcus pneumoniae (ATCC 6301) (Streptococcus sp.): 4 µg/mL (≈ 2.13 µM) | MIC Streptococcus pneumoniae (GC 1894) (Streptococcus sp.): 8 µg/mL (≈ 4.26 µM) | MIC Streptococcus pneumoniae (GC 4565) (Streptococcus sp.): 8 µg/mL (≈ 4.26 µM) | MIC Streptococcus pyogenes (GC 4563) (Streptococcus sp.): 4 µg/mL (≈ 2.13 µM) | MIC Streptococcus pneumoniae (ATCC 6301) (Streptococcus sp.; strain ATCC 6301): 4 µg/mL (≈ 2.13 µM) | MIC Streptococcus pneumoniae (GC 1894) (Streptococcus sp.; strain GC 1894): 8 µg/mL (≈ 4.26 µM) | MIC Streptococcus pyogenes (GC 4563) (Streptococcus sp.; strain GC 4563): 4 µg/mL (≈ 2.13 µM) | MIC Streptococcus agalactiae (GC 4564) (Streptococcus sp.; strain GC 4564): 4 µg/mL (≈ 2.13 µM) | MIC Streptococcus pneumoniae (GC 4565) (Streptococcus sp.; strain GC 4565): 8 µg/mL (≈ 4.26 µM) | MIC Escherichia coli (ATCC 25922) (Escherichia coli): >128 µg/mL | MIC Escherichia coli (GC 4559) (Escherichia coli): >128 µg/mL | MIC Escherichia coli (GC 4560) (Escherichia coli): 2 µg/mL (≈ 1.06 µM)
